Molecular target: T1, human PKD2 channel proteins (WT or C331S) (Homo sapiens, UniProt Q13563)
T1 construct: purified the C331S variant of polycystin-2 (residues 53-792) protein in amphipols; made in house
Assay: Thermal stability assay (FSEC) of purified PKD2 channel proteins
Conditions: 10 mM GSH
Description: Thermal stability assay. Approximately 9 μg of purified human PKD2 channel proteins (WT or C331S) in 30 μl buffer composed of 20 mM HEPES 150 mM NaCl, 2 mM CaCl2), 0.5 mM TCEP and 0.5 mM DDM (n-Dodecyl β-D-maltoside), at pH 7.4, were incubated at 4° C.-90° C. (4° C., room temperature, 30° C., 35.2° C., 39.3° C., 44.9° C., 49° C., 54° C., 60° C., 65.5° C., 69.4° C., 75° C., 79.3° C., 84° C., and 90° C.) for 10 minutes in a thermal cycler. To reduce the C331-C344 disulfide bond in the PKD2 channel, 10 mM GSH was added to all the buffers during purification and thermal stability assay. The treated channel samples were then diluted 10 times with the same buffer followed by centrifugation for 30 min at 40,000 rpm. 30 μl of each cleared channel samples were separated on an analytical size exclusion column (Superose™ 6 5/150 GL, GE Healthcare) at 0.3 ml/min flow rate. Proteins were detected by Tryptophan fluorescence. The FSEC-based thermostability experiments were performed in triplicates for each temperature point. The integrated area of the channel tetramer peak at different temperature points is normalized to that at 4° C. to generate the thermal stability plot.
We tested the thermal stability of PKD2 and the C331S variant in the presence or absence of NS1643. (See FIG. 33). We also performed Rosetta modeling. (See FIG. 35).

T1 sequence (Q13563 53-792 C331S): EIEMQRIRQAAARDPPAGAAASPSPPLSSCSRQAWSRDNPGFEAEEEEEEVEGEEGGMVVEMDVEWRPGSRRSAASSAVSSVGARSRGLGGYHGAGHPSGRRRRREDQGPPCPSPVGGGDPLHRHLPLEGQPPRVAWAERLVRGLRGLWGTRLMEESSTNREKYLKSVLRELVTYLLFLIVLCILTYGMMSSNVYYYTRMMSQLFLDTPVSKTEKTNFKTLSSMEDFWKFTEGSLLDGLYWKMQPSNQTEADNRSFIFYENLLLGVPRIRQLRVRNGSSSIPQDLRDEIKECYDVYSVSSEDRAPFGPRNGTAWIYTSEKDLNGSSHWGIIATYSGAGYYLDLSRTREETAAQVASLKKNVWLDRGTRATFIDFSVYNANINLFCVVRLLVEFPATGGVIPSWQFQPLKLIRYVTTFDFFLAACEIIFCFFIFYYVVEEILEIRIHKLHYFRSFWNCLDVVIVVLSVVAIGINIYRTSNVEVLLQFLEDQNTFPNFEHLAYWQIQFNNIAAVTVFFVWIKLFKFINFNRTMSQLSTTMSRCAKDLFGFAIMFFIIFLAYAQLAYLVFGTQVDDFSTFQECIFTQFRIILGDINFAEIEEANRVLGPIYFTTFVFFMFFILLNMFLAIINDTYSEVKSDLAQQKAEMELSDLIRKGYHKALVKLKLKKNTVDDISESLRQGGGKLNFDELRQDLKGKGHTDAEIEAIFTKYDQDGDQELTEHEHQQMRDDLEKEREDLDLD

- Thermal denaturation of polycystin-2 channel protein under reducing conditions: denaturing at lower temperatures
Structure (SMILES): N[C@@H](CCC(=O)N[C@@H](CS)C(=O)NCC(=O)O)C(=O)O [GSH, reduced glutathione]
